Measured values from the NIST ThermoML archive (doi:10.1021/je020125e).
Where “and” joins values, the source holds several entries; their conditions need not be identical. Equal entries are not always repeated. Numbers after ± are expanded uncertainties.

Conditions: 101.33 kPa, Liquid, Hot wire method

CCC(C)C(C)C (stereo unspecified) [2,3-dimethylpentane]
Conditions | thermal conductivity | thermal diffusivity
256.3 K | 0.1178 ± 0.00096 W/m/K | –
256.7 K | 0.1175 ± 0.00096 W/m/K | –
256.93 K | – | 8.19e-08 ± 1.6e-09 m2/s
256.95 K | 0.1173 ± 0.00096 W/m/K | –
257.7 K | – | 8.09e-08 ± 1.6e-09 m2/s
258.3 K | – | 8.05e-08 ± 1.6e-09 m2/s
269.57 K | 0.114 ± 0.00094 W/m/K | –
269.87 K | 0.1137 ± 0.00093 W/m/K | –
270.12 K | 0.1135 ± 0.00093 W/m/K | –
270.24 K | – | 7.8e-08 ± 1.5e-09 m2/s
270.9 K | – | 7.79e-08 ± 1.5e-09 m2/s
271.49 K | – | 7.72e-08 ± 1.5e-09 m2/s
284.74 K | 0.1097 ± 0.00091 W/m/K | –
285.02 K | 0.1093 ± 0.0009 W/m/K | –
285.27 K | 0.1092 ± 0.0009 W/m/K | –
285.38 K | – | 7.51e-08 ± 1.5e-09 m2/s
286.04 K | – | 7.37e-08 ± 1.4e-09 m2/s
286.63 K | – | 7.35e-08 ± 1.4e-09 m2/s
296.31 K | 0.1057 ± 0.00087 W/m/K | –
296.36 K | 0.1063 ± 0.00088 W/m/K | –
296.65 K | 0.106 ± 0.00088 W/m/K | –
297 K | – | 7.16e-08 ± 1.4e-09 m2/s
297.68 K | – | 7.1e-08 ± 1.4e-09 m2/s
298.28 K | – | 7.02e-08 ± 1.4e-09 m2/s
311.34 K | 0.1022 ± 0.00084 W/m/K | –
311.66 K | 0.102 ± 0.00084 W/m/K | –
311.93 K | 0.1018 ± 0.00084 W/m/K | –
311.97 K | – | 6.79e-08 ± 1.3e-09 m2/s
312.7 K | – | 6.77e-08 ± 1.3e-09 m2/s
313.33 K | – | 6.76e-08 ± 1.3e-09 m2/s
321.3 K | 0.09959 ± 0.00082 W/m/K | –
321.59 K | 0.09937 ± 0.00082 W/m/K | –
321.85 K | 0.09916 ± 0.00082 W/m/K | –
321.91 K | – | 6.53e-08 ± 1.3e-09 m2/s
322.58 K | – | 6.46e-08 ± 1.3e-09 m2/s
323.18 K | – | 6.43e-08 ± 1.2e-09 m2/s
331.96 K | 0.097 ± 0.00082 W/m/K | –
332.21 K | 0.09651 ± 0.00082 W/m/K and 0.09662 ± 0.00081 W/m/K | –
332.5 K | – | 6.07e-08 ± 1.2e-09 m2/s
333.06 K | – | 5.99e-08 m2/s and 6e-08 m2/s
343.12 K | 0.09411 ± 0.0008 W/m/K | –
343.36 K | 0.09373 ± 0.00079 W/m/K | –
343.59 K | 0.09353 ± 0.00078 W/m/K | –
343.64 K | – | 5.78e-08 ± 1.1e-09 m2/s
344.2 K | – | 5.72e-08 ± 1.1e-09 m2/s
344.73 K | – | 5.72e-08 ± 1.1e-09 m2/s

CC(C)CC(C)C [2,4-dimethylpentane]
Conditions | thermal conductivity [W/m/K] | thermal diffusivity [m2/s]
256.59 K | 0.1138 ± 0.0011 | –
256.99 K | 0.1135 ± 0.0011 | –
257.3 K | 0.1133 ± 0.0011 | –
257.56 K | – | 7.9e-08 ± 1.6e-09
258.58 K | – | 7.84e-08 ± 1.6e-09
259.37 K | – | 7.76e-08 ± 1.6e-09
276.3 K | 0.1082 ± 0.0011 | –
276.69 K | 0.1079 ± 0.0011 | –
277.04 K | 0.1077 ± 0.0011 | –
277.29 K | – | 7.41e-08 ± 1.5e-09
278.27 K | – | 7.29e-08 ± 1.5e-09
279.16 K | – | 7.28e-08 ± 1.5e-09
296.19 K | 0.1025 ± 0.001 | –
296.63 K | 0.1022 ± 0.001 | –
296.97 K | 0.102 ± 0.001 | –
297.18 K | – | 6.9e-08 ± 1.4e-09
298.25 K | – | 6.83e-08 ± 1.4e-09
299.08 K | – | 6.77e-08 ± 1.4e-09
316.55 K | 0.09692 ± 0.00097 | –
317.01 K | 0.09668 ± 0.00097 | –
317.37 K | 0.09645 ± 0.00097 | –
317.55 K | – | 6.43e-08 ± 1.3e-09
318.67 K | – | 6.39e-08 ± 1.3e-09
319.53 K | – | 6.32e-08 ± 1.3e-09
333.96 K | 0.0924 ± 0.00093 | –
334.43 K | 0.09213 ± 0.00092 | –
334.81 K | 0.09197 ± 0.00092 | –
334.93 K | – | 5.99e-08 ± 1.2e-09
336.06 K | – | 5.98e-08 ± 1.2e-09
336.97 K | – | 5.96e-08 ± 1.2e-09

CCCCCC(C)C [2-methylheptane]
Conditions | thermal conductivity [W/m/K] | thermal diffusivity [m2/s]
259.12 K | 0.1244 ± 0.00086 | –
259.33 K | 0.1242 ± 0.00085 | –
259.51 K | 0.1242 ± 0.00085 | –
260.04 K | – | 8.23e-08 ± 1.5e-09
260.63 K | – | 8.22e-08 ± 1.5e-09
261.12 K | – | 8.22e-08 ± 1.5e-09
277.53 K | 0.1195 ± 0.00082 | –
277.77 K | 0.1194 ± 0.00082 | –
277.96 K | 0.1193 ± 0.00082 | –
278.48 K | – | 7.83e-08 ± 1.5e-09
279.11 K | – | 7.84e-08 ± 1.5e-09
279.63 K | – | 7.81e-08 ± 1.5e-09
295.72 K | 0.1145 ± 0.00079 | –
295.95 K | 0.1144 ± 0.00079 | –
296.16 K | 0.1143 ± 0.00079 | –
296.69 K | – | 7.41e-08 ± 1.4e-09
297.31 K | – | 7.42e-08 ± 1.4e-09
297.85 K | – | 7.39e-08 ± 1.4e-09
313.83 K | 0.1097 ± 0.00076 | –
314.07 K | 0.1095 ± 0.00076 | –
314.3 K | 0.1095 ± 0.00076 | –
314.83 K | – | 7.05e-08 ± 1.3e-09
315.46 K | – | 7.04e-08 ± 1.3e-09
316.05 K | – | 7.06e-08 ± 1.3e-09
327.74 K | 0.1061 ± 0.00074 | –
328 K | 0.1059 ± 0.00074 | –
328.23 K | 0.1058 ± 0.00074 | –
328.77 K | – | 6.82e-08 ± 1.3e-09
329.44 K | – | 6.79e-08 ± 1.3e-09
330.02 K | – | 6.78e-08 ± 1.3e-09

CCCCC(C)C [2-methylhexane]
Conditions | thermal conductivity [W/m/K] | thermal diffusivity [m2/s]
256.24 K | 0.1227 ± 0.001 | –
256.67 K | 0.1226 ± 0.001 | –
257.02 K | 0.1224 ± 0.001 | –
257.46 K | – | 8.41e-08 ± 1.6e-09
258.65 K | – | 8.33e-08 ± 1.6e-09
259.64 K | – | 8.28e-08 ± 1.6e-09
275.56 K | 0.1172 ± 0.00096 | –
276 K | 0.1168 ± 0.00095 | –
276.39 K | 0.1167 ± 0.00095 | –
276.83 K | – | 8e-08 ± 1.5e-09
278.06 K | – | 7.86e-08 ± 1.5e-09
279.12 K | – | 7.85e-08 ± 1.5e-09
296.46 K | 0.1109 ± 0.00091 | –
296.93 K | 0.1106 ± 0.00091 | –
297.4 K | 0.1105 ± 0.0009 | –
297.8 K | – | 7.5e-08 ± 1.4e-09
299.08 K | – | 7.43e-08 ± 1.4e-09
300.34 K | – | 7.38e-08 ± 1.4e-09
317.4 K | 0.1049 ± 0.00086 | –
317.92 K | 0.1047 ± 0.00086 | –
318.35 K | 0.1045 ± 0.00086 | –
318.77 K | – | 7.02e-08 ± 1.4e-09
320.16 K | – | 6.96e-08 ± 1.3e-09
321.33 K | – | 6.94e-08 ± 1.3e-09
337.1 K | 0.09956 ± 0.00082 | –
337.65 K | 0.0992 ± 0.00082 | –
338.11 K | 0.09905 ± 0.00082 | –
338.49 K | – | 6.63e-08 ± 1.3e-09
339.91 K | – | 6.52e-08 ± 1.3e-09
341.12 K | – | 6.49e-08 ± 1.3e-09

CCCC(C)C [2-methylpentane]
Conditions | thermal conductivity [W/m/K] | thermal diffusivity [m2/s]
256.56 K | 0.1182 ± 0.00082 | –
256.89 K | 0.1181 ± 0.00081 | –
257.29 K | 0.1179 ± 0.00081 | –
257.79 K | – | 8.23e-08 ± 1.5e-09
258.59 K | – | 8.18e-08 ± 1.5e-09
259.61 K | – | 8.15e-08 ± 1.5e-09
277.01 K | 0.1114 ± 0.00077 | –
277.35 K | 0.1113 ± 0.00077 | –
277.8 K | 0.1111 ± 0.00077 | –
278.28 K | – | 7.65e-08 ± 1.4e-09
279.1 K | – | 7.61e-08 ± 1.4e-09
280.22 K | – | 7.57e-08 ± 1.4e-09
297.36 K | 0.1049 ± 0.00073 | –
297.71 K | 0.1048 ± 0.00073 | –
298.16 K | 0.1046 ± 0.00073 | –
298.66 K | – | 7.11e-08 ± 1.3e-09
299.5 K | – | 7.09e-08 ± 1.3e-09
300.57 K | – | 7.04e-08 ± 1.3e-09
314.15 K | 0.09989 ± 0.0007 | –
314.51 K | 0.09978 ± 0.0007 | –
314.99 K | 0.09959 ± 0.0007 | –
315.5 K | – | 6.71e-08 ± 1.3e-09
316.34 K | – | 6.69e-08 ± 1.3e-09
317.47 K | – | 6.65e-08 ± 1.3e-09
328.29 K | 0.09597 ± 0.00068 | –
328.64 K | 0.09583 ± 0.00068 | –
329.15 K | 0.09564 ± 0.00068 | –
329.7 K | – | 6.42e-08 ± 1.2e-09
330.51 K | – | 6.39e-08 ± 1.2e-09
331.7 K | – | 6.36e-08 ± 1.2e-09
